According to PubChem BioAssay AID1259408 (Genetic Toxicology Data Bank (GENE-TOX), 2018):
Activity calls are given as the source filed them. The rule behind the calls is not given here.

Tested on: GENE-TOX genotoxicity assays, various organisms and cells
Assay: GENE-TOX mutagenicity studies
Details: for call: Assay Type: In vivo carcinogenicity studies
[1] = Species/Cell Type: Human diploid fibroblasts, Assay Type: Unscheduled DNA synthesis (UDS) in vitro, DNA effects, Assay Code: UDH-*, Activation: With metabolic activation, Evaluation Type: Evaluation A (Pre-1980)
[2] = Species/Cell Type: Mouse, Sex: Male, Assay Type: Sperm morphology, Assay Code: SPI-, Evaluation Type: Evaluation A (Pre-1980)
[3] = Species/Cell Type: Nonhuman, Assay Type: Sister-chromatid exchange (SCE) in vitro, Assay Code: SC2+, Evaluation Type: Evaluation B (Post-1980)
[4] = Species/Cell Type: Salmonella typhimurium (one or more of the five standard strains: TA98, TA100, TA1535, TA1537, and TA1538), Assay Type: Histidine reverse gene mutation, Ames assay, Assay Code: SAL-, Evaluation Type: Evaluation A (Pre-1980)
[5] = Species/Cell Type: Tradescantia species, Assay Type: Gene mutation, Assay Code: TRM+D, Dose Response: With dose response, Evaluation Type: Evaluation A (Pre-1980)
[6] = Species/Cell Type: Chinese hamster lung (V79) cells, Assay Type: Forward gene mutation at the HPRT or ouabain locus, Assay Code: V79+, Evaluation Type: Evaluation A (Pre-1980)
[7] = Species/Cell Type: Nonhuman, Assay Code: CCGT, Evaluation Type: Evaluation A (Pre-1980)
[8] = Species/Cell Type: Salmonella typhimurium (one or more of the five standard strains: TA98, TA100, TA1535, TA1537, and TA1538), Assay Type: Histidine reverse gene mutation, Ames assay, Assay Code: SAL+*, Activation: With metabolic activation, Evaluation Type: Evaluation A (Pre-1980)
[9] = Species/Cell Type: Nonhuman, Assay Code: CCG-, Evaluation Type: Evaluation A (Pre-1980)

## CC(C)NCCCNc1c2ccccc2nc2cccc([N+](=O)[O-])c12
Species/Cell Type: Human lymphocytes, Assay Type: Sister-chromatid exchange (SCE) in vitro, Assay Code: SCL+, Evaluation Type: Evaluation A (Pre-1980)
  mutagenic call: active; positive
Species/Cell Type: Human, Assay Type: Sister-chromatid exchange (SCE) in vitro, Assay Code: SC1+, Evaluation Type: Evaluation A (Pre-1980)
  mutagenic call: active; positive

## ClC(Br)Br
Species/Cell Type: Human lymphocytes, Assay Type: Sister-chromatid exchange (SCE) in vitro, Assay Code: SCL+D, Dose Response: With dose response, Evaluation Type: Evaluation B (Post-1980)
  mutagenic call: active; positive
Species/Cell Type: Human, Assay Type: Sister-chromatid exchange (SCE) in vitro, Assay Code: SC1+D, Dose Response: With dose response, Evaluation Type: Evaluation B (Post-1980)
  mutagenic call: active; positive
Species/Cell Type: Nonhuman, Assay Type: Sister-chromatid exchange (SCE) in vivo, Assay Code: SC3+D, Dose Response: With dose response, Evaluation Type: Evaluation B (Post-1980)
  mutagenic call: active; positive

## Cc1cc(-c2cc(C)c(N)c(C)c2)cc(C)c1N
[1]
  mutagenic call: inactive; negative
Species/Cell Type: Human, Assay Type: Sister-chromatid exchange (SCE) in vitro, Assay Code: SC1-, Evaluation Type: Evaluation B (Post-1980)
  mutagenic call: inactive; negative
Species/Cell Type: Mammalian polychromatic erythrocytes, Assay Type: Micronucleus test, chromosome aberrations, Assay Code: MNT+, Evaluation Type: Evaluation A (Pre-1980)
  mutagenic call: active; positive
[2]
  mutagenic call: inactive; negative
[3]
  mutagenic call: active; positive
Species/Cell Type: Nonhuman, Assay Type: Sister-chromatid exchange (SCE) in vivo, Assay Code: SC3T, Evaluation Type: Evaluation B (Post-1980)
  mutagenic call: no conclusion
[4]
  mutagenic call: inactive; negative
[5]
  mutagenic call: active; positive

## ClC1=C(Cl)[C@]2(Cl)[C@@H]3[C@@H]4C[C@@H]([C@H]5O[C@@H]45)[C@@H]3[C@@]1(Cl)C2(Cl)Cl
[6]
  mutagenic call: active; positive
Species/Cell Type: Drosophila melanogaster, Assay Type: Sex-linked recessive lethal gene mutation, Assay Code: SRLT, Evaluation Type: Evaluation A (Pre-1980)
  mutagenic call: no conclusion
Species/Cell Type: Rodents, Sex: Male, Assay Type: Dominant lethal test, Assay Code: DLT-, Evaluation Type: Evaluation A (Pre-1980)
  mutagenic call: inactive; negative
Species/Cell Type: Saccharomyces cerevisiae, Assay Type: Forward and reverse gene mutation, mitotic recombination and gene conversion, host-mediated assay, Assay Code: HME-, Evaluation Type: Evaluation A (Pre-1980)
  mutagenic call: inactive; negative
Species/Cell Type: Saccharomyces cerevisiae, Assay Type: Mitotic recombination or gene conversion, Assay Code: YEH-, Evaluation Type: Evaluation A (Pre-1980)
  mutagenic call: inactive; negative
[4]
  mutagenic call: inactive; negative

## [S]=[Mo]=[S]
Species/Cell Type: Syrian hamster embryo (SA7/SHE) cells, Assay Type: Cell transformation, viral enhanced, Assay Code: CT7+, Evaluation Type: Evaluation A (Pre-1980)
  mutagenic call: active; positive

## CCCCC=O
Species/Cell Type: Human lymphocytes, Assay Type: Sister-chromatid exchange (SCE) in vitro, Assay Code: SCL+, Evaluation Type: Evaluation B (Post-1980)
  mutagenic call: active; positive
Species/Cell Type: Human, Assay Type: Sister-chromatid exchange (SCE) in vitro, Assay Code: SC1+, Evaluation Type: Evaluation B (Post-1980)
  mutagenic call: active; positive

## O=[N+]([O-])c1ccc2ccc3c4ccccc4cc4ccc1c2c43
Species/Cell Type: Chinese hamster ovary (CHO) cells, Assay Type: Forward gene mutation at the HPRT locus, Assay Code: CHO+*, Activation: With metabolic activation, Evaluation Type: Evaluation B (Post-1980)
  mutagenic call: active; positive

## O=c1ccc2ccccc2o1
Species/Cell Type: Allium cepa, Assay Type: Chromosome aberrations, Assay Code: ALC+D, Dose Response: With dose response, Evaluation Type: Evaluation A (Pre-1980)
  mutagenic call: active; positive

## Cc1c2c(c(CO)c3ccc4ccccc4c13)[C@H](O)[C@@H](O)C=C2
[6]
  mutagenic call: active; positive
[7]
  call: no conclusion

## Nc1cccc(N)c1
Species/Cell Type: Allium cepa, Assay Type: Chromosome aberrations, Assay Code: ALC+, Evaluation Type: Evaluation A (Pre-1980)
  mutagenic call: active; positive
Species/Cell Type: Rodents, Sex: Male, Assay Type: Dominant lethal test, Assay Code: DLTT, Evaluation Type: Evaluation A (Pre-1980)
  mutagenic call: no conclusion
[8]
  mutagenic call: active; positive
Species/Cell Type: Syrian hamster embryo (SHE) cells, Assay Type: Cell transformation, clonal assay, Assay Code: CTC+, Evaluation Type: Evaluation A (Pre-1980)
  mutagenic call: active; positive

## Cc1ccc2cccnc2c1
[8]
  mutagenic call: active; positive

## COC(=O)C1=CCCN(C)C1
Species/Cell Type: Mammalian polychromatic erythrocytes, Assay Type: Micronucleus test, chromosome aberrations, Assay Code: MNT+U, Dose Response: Unconfirmed positive response, Evaluation Type: Evaluation B (Post-1980)
  mutagenic call: active; positive
Species/Cell Type: Nonhuman, Assay Type: Sister-chromatid exchange (SCE) in vivo, Assay Code: SC3+, Evaluation Type: Evaluation B (Post-1980)
  mutagenic call: active; positive

## CN(CCCCOC[C@H](N)C(=O)O)N=O
Species/Cell Type: Escherichia coli polA (W3110 vs P3478), Assay Type: Rec-assay, DNA effects (bacterial DNA repair), Assay Code: RE2-, Evaluation Type: Evaluation A (Pre-1980)
  mutagenic call: inactive; negative
Species/Cell Type: Escherichia coli polA (W3119 vs P3478), Assay Type: Rec-assay, DNA effects (bacterial DNA repair), Assay Code: RE1T, Evaluation Type: Evaluation A (Pre-1980)
  mutagenic call: no conclusion

## CC(=O)Nc1ccc(C(=O)CCl)cc1
[9]
  call: inactive; negative

## CNC(=O)C[C@@H](N)C(=O)N[C@@H](C(=O)N[C@@H]1C(=O)N2[C@@H]1SC(C)(C)[C@@H]2C(=O)O)c1ccc(O)cc1
Species/Cell Type: Mammalian polychromatic erythrocytes, Assay Type: Micronucleus test, chromosome aberrations, Assay Code: MNTT, Evaluation Type: Evaluation B (Post-1980)
  mutagenic call: no conclusion

## c1cc2ccc3cccc4ccc(c1)c2c34
Species/Cell Type: Chinese hamster lung (V79) cells, Assay Type: Forward gene mutation at the HPRT or ouabain locus, Assay Code: V79-*, Activation: With metabolic activation, Evaluation Type: Evaluation A (Pre-1980)
  mutagenic call: inactive; negative
Species/Cell Type: Chinese hamster lung (V79) cells, Assay Type: Forward gene mutation, host-mediated assay, Assay Code: HMG-, Evaluation Type: Evaluation A (Pre-1980)
  mutagenic call: inactive; negative
Species/Cell Type: Fischer rat embryo (RLV/1706) cells, Assay Type: Cell transformation, viral enhanced, Assay Code: CTR-, Evaluation Type: Evaluation A (Pre-1980)
  mutagenic call: inactive; negative
[1]
  mutagenic call: inactive; negative
Species/Cell Type: Mammalian polychromatic erythrocytes, Assay Type: Micronucleus test, chromosome aberrations, Assay Code: MNTT, Evaluation Type: Evaluation A (Pre-1980)
  mutagenic call: no conclusion
Species/Cell Type: Mouse (BALB/c-3T3) cells, Assay Type: Cell transformation, Assay Code: CTB-, Evaluation Type: Evaluation A (Pre-1980)
  mutagenic call: inactive; negative
Species/Cell Type: Mouse embryo (AKR/ME) cells, Assay Type: Cell transformation, Assay Code: CTK-, Evaluation Type: Evaluation A (Pre-1980)
  mutagenic call: inactive; negative
[2]
  mutagenic call: inactive; negative
Species/Cell Type: Nonhuman, Assay Type: Chromosome aberrations in vitro, Assay Code: CY&-, Evaluation Type: Evaluation A (Pre-1980)
  mutagenic call: inactive; negative
[7]
  call: no conclusion
[3]
  mutagenic call: active; positive
Species/Cell Type: Nonhuman, Assay Type: Sister-chromatid exchange (SCE) in vitro, Assay Code: SC2T, Evaluation Type: Evaluation A (Pre-1980)
  mutagenic call: no conclusion
Species/Cell Type: Nonhuman, Assay Type: Sister-chromatid exchange (SCE) in vivo, Assay Code: SC3-, Evaluation Type: Evaluation A (Pre-1980)
  mutagenic call: inactive; negative
[4]
  mutagenic call: inactive; negative
Species/Cell Type: Syrian hamster embryo (SHE) cells, Assay Type: Cell transformation, clonal assay, Assay Code: CTC-, Evaluation Type: Evaluation A (Pre-1980)
  mutagenic call: inactive; negative
[5]
  mutagenic call: active; positive

## O
Species/Cell Type: Bacillus subtilis (H17 vs M45), Assay Type: Rec-assay, spot test, DNA effects (bacterial DNA repair), Assay Code: REWT, Evaluation Type: Evaluation A (Pre-1980)
  mutagenic call: no conclusion
Species/Cell Type: Nonhuman, Assay Type: Sister-chromatid exchange (SCE) in vitro, Assay Code: SC2T, Evaluation Type: Evaluation B (Post-1980)
  mutagenic call: no conclusion
Species/Cell Type: Syrian hamster embryo (SA7/SHE) cells, Assay Type: Cell transformation, viral enhanced, Assay Code: CT7-, Evaluation Type: Evaluation A (Pre-1980)
  mutagenic call: inactive; negative

## CO[C@@H]1CC(O[C@H]2CC[C@@]3(C=O)[C@](O)(CC[C@]4(C)[C@]3(C)CC[C@]3(C)[C@@H](C5=CC(=O)OC5)CC[C@@]43O)C2)O[C@H](C)C1O[C@H]1C[C@@H](CO)[C@H](O)[C@@H](O)[C@@H]1O (some centres not stated)
Species/Cell Type: Nonhuman, Assay Type: Sister-chromatid exchange (SCE) in vitro, Assay Code: SC2-, Evaluation Type: Evaluation B (Post-1980)
  mutagenic call: inactive; negative

## Nc1ccc(S(=O)(=O)Nc2nccs2)cc1
Species/Cell Type: Arabidopsis species, Assay Type: Gene mutation, Assay Code: ARM-, Evaluation Type: Evaluation A (Pre-1980)
  mutagenic call: inactive; negative

## C[C@]12C=CC(=O)C=C1CC[C@@H]1[C@@H]2[C@@H](O)C[C@@]2(C)[C@H]1CC[C@]2(O)C(=O)CO
Species/Cell Type: Human lymphocytes, Assay Type: Sister-chromatid exchange (SCE) in vivo, Assay Code: SCY+, Evaluation Type: Evaluation B (Post-1980)
  mutagenic call: active; positive
Species/Cell Type: Human, Sex: Male, Assay Type: Sperm morphology, Assay Code: SPH+, Evaluation Type: Evaluation A (Pre-1980)
  mutagenic call: active; positive

## C=CC=O
Species/Cell Type: Nonhuman, Assay Type: Sister-chromatid exchange (SCE) in vitro, Assay Code: SC2+D, Dose Response: With dose response, Evaluation Type: Evaluation B (Post-1980)
  mutagenic call: active; positive

## O=[N+]([O-])c1cccc2ccccc12
[9]
  call: inactive; negative
